Data as given in article PMC7255010, “Small-molecule activating SIRT6 elicits therapeutic effects and synergistically promotes anti-tumor activity of vitamin D3 in colorectal cancer” (Theranostics, 2020).
Where “and” joins values, the source holds several entries; their conditions need not be identical. Equal entries are not always repeated. Where two headings read alike, the source gives them in different places.

Key:
Assay type in all cases: cell-based
[1] = biological target: SIRT6 (Homo sapiens, UniProt Q8N6T7); experiment: Cellular thermal shift assay (CETSA) in HCT116 cells
Chain of SIRT6 (Q8N6T7 whole entry): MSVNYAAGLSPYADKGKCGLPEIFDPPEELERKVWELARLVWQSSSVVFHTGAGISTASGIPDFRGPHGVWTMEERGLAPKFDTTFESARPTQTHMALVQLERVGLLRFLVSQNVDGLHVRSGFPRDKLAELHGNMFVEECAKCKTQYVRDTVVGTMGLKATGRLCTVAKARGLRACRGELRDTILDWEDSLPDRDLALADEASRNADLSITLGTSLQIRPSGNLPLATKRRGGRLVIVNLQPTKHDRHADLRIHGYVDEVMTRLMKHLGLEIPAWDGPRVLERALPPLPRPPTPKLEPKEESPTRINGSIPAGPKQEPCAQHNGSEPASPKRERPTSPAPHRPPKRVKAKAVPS
Protocol: CETSA was conducted as previously described. HCT116 cells were seeded in 10-cm cell culture dishes and grown to ~90% confluence. […] Cell pellets were collected by centrifugation (1,000 × g, 5 min, 4 °C), resuspended in 600 μL of 1× PBS, and distributed into different 0.2-mL tubes, each with 40 μL of cell suspension. The tubes were heated at the indicated temperature endpoints (38.5-51.5 °C) for 3 min in a PCR thermocycler. Immediately after heating, the tubes were incubated at room temperature for another 3 min. The samples were subjected to two freeze-thaw cycles in liquid nitrogen. Each cell lysate was centrifuged (15,000 × g for 20 min at 4 °C), and 25 μL of supernatant was collected. The supernatants were lysed in 25 μL of 2× SDS loading buffer at 95 °C for 10 min. Then, the samples were centrifuged, and the supernatants were analyzed by western blotting. Quantification of the SIRT6 level was performed with ImageJ V4. The signal intensity of each protein band on the western blots was normalized to the signal intensity observed at 38.5 °C. The corresponding signal intensities were plotted against temperature in GraphPad Prism V7. Each data point is shown as the mean ± s.e.m. of four independent experiments.

[2] = system: SW1463; experiment: Cell proliferation, CCK-8; details: Homo sapiens; SW1463, CCK8, 48 h
Protocol: (§1) Cell proliferation was evaluated using a Cell Counting Kit-8 (CCK-8) (Dojindo) following the manufacturer's instructions. Briefly, CRC cells were plated in 96-well plates at a density of 5 × 10^3 cells per well. […] Cells treated with DMSO were used as the […] controls, and the final DMSO concentration in the medium was 0.1%. After 48 h of treatment, 10 μL of CCK-8 solution was added to every well and incubated for 1 h at 37 °C. Then, a microplate reader (Synergy H4 Hybrid Reader, BioTek) was used to measure the absorbance of the solvent at 450 nm. The background of drug and culture medium has been deducted in each well. The relative cell proliferation of each treatment group was expressed as the percentage change relative to the […] control group. Each data point is the mean ± s.d. of two or three independent experiments.

[3] = system: Colo201; experiment: Cell proliferation, CCK-8; details: Homo sapiens, COLO 201; Colo201, CCK8, 48 h
Protocol: as §1

[4] = system: LS513; experiment: Cell proliferation, CCK-8; details: Homo sapiens, LS-513; LS513, CCK8, 48 h
Protocol: as §1

[5] = system: SW48; experiment: Cell proliferation, CCK-8; details: Homo sapiens; SW48, CCK8, 48 h
Protocol: as §1

[6] = system: SW1417; experiment: Cell proliferation, CCK-8; details: Homo sapiens; SW1417, CCK8, 48 h
Protocol: as §1

[7] = system: Caco2; experiment: Cell proliferation, CCK-8; details: Homo sapiens, Caco-2; Caco2, CCK8, 48 h
Protocol: as §1

[8] = system: HCT116; experiment: Cell proliferation, CCK-8; details: Homo sapiens, HCT-116
Protocol: as §1

[9] = system: NCI-H508; experiment: Cell proliferation, CCK-8; details: Homo sapiens; NCI-H508, CCK8, 48 h
Protocol: as §1

[10] = system: DLD-1; experiment: Cell proliferation, CCK-8; details: Homo sapiens; DLD-1, CCK8, 48 h
Protocol: as §1

[11] = system: Colo205; experiment: Cell proliferation, CCK-8; details: Homo sapiens, COLO 205; Colo205, CCK8, 48 h
Protocol: as §1

[12] = system: SW620; experiment: Cell proliferation, CCK-8; details: Homo sapiens, SW-620; SW620, CCK8, 48 h
Protocol: as §1

[13] = system: NCI-H716; experiment: Cell proliferation, CCK-8; details: Homo sapiens; NCI-H716, CCK8, 48 h
Protocol: as §1

[14] = system: HT29; experiment: Cell proliferation, CCK-8; details: Homo sapiens, HT-29; HT29, CCK8, 48 h
Protocol: as §1

[15] = system: SW1116; experiment: Cell proliferation, CCK-8; details: Homo sapiens, SW 1116; SW1116, CCK8, 48 h
Protocol: as §1

[16] = system: Colo320DM; experiment: Cell proliferation, CCK-8; details: Homo sapiens, COLO 320DM, CCK8, 48 h
Protocol: as §1

[17] = system: HCT8; experiment: Cell proliferation, CCK-8; details: Homo sapiens, HCT-8; HCT8, CCK8, 48 h
Protocol: as §1

[18] = system: LS174T; experiment: Cell proliferation, CCK-8; details: Homo sapiens, CCK8, 48 h
Protocol: as §1

[19] = system: T84; experiment: Cell proliferation, CCK-8; details: Homo sapiens; T84, CCK8, 48 h
Protocol: as §1

[20] = system: RKO; experiment: Cell proliferation, CCK-8; details: Homo sapiens, CCK8, 48 h
Protocol: as §1

[21] = system: LOVO; experiment: Cell proliferation, CCK-8; details: Homo sapiens, CCK8, 48 h
Protocol: as §1

[22] = system: LS123; experiment: Cell proliferation, CCK-8; details: Homo sapiens, LS-123; LS123, CCK8, 48 h
Protocol: as §1

[23] = system: SKCO1; experiment: Cell proliferation, CCK-8; details: Homo sapiens, SK-CO-1; SKCO1, CCK8, 48 h
Protocol: as §1

[24] = system: HCT15; experiment: Cell proliferation, CCK-8; details: Homo sapiens, HCT-15; HCT15, CCK8, 48 h
Protocol: as §1

[25] = system: LS180; experiment: Cell proliferation, CCK-8; details: Homo sapiens; LS180, CCK8, 48 h
Protocol: as §1

[26] = system: LS1034; experiment: Cell proliferation, CCK-8; details: Homo sapiens, LS-1034; LS1034, CCK8, 48 h
Protocol: as §1

[27] = system: SW480; experiment: Cell proliferation, CCK-8; details: Homo sapiens; SW480, CCK8, 48 h
Protocol: as §1

SMILES: Cc1cc(F)c(Br)cc1NS(=O)(=O)c1ccc(NS(=O)(=O)c2cc(Cl)cc(Cl)c2)cc1CN1CCOC[C@H]1C [MDL-811]
- Melting Temperature (Tm) of SIRT6 ([1]; 10 µM MDL-811, 24 h, HCT116 cells, DMSO 45.8 ± 0.3, mean ± s.e.m., four experiments): 47.6 ± 0.1 °C and 47.6 °C
- ΔTm at 10 µM ([1]; HCT-116): 1.8 ± 0.2 °C
- IC50 [2]: 13 ± 1.5 µM
- IC50 [3]: 20.3 ± 1.4 µM
- IC50 [4]: 28.6 ± 0.6 µM
- IC50 [5]: 10.8 ± 1.5 µM
- IC50 [6]: 15.1 ± 1.9 µM
- IC50 [7]: 28.7 ± 1.7 µM
- IC50 ([8]; HCT116, CCK8, 48 h, read-out: IC50 ± s.d.): 4.7 ± 0.2 µM
- IC50 ([8]; HCT116, CCK-8, 48 h, Figure S6, mean ± s.e.m. of three experiments, read-out: IC50): 4.8 ± 0.2 µM
- IC50 [9]: 9.7 ± 1.2 µM
- IC50 [10]: 18 ± 0.1 µM
- IC50 [11]: 38.1 ± 4.4 µM
- IC50 [12]: 16.7 ± 1.4 µM
- IC50 [13]: 61 ± 2.3 µM
- IC50 [14]: 7 ± 1.1 µM
- IC50 [15]: 5.7 ± 0.3 µM
- IC50 [16]: 33.2 ± 0.9 µM
- IC50 [17]: 20.1 ± 2 µM
- IC50 [18]: 23.8 ± 2 µM
- IC50 [19]: 13 ± 1.4 µM
- IC50 [20]: 12.3 ± 1.8 µM
- IC50 [21]: 7.8 ± 0.2 µM
- IC50 [22]: 19.8 ± 0.5 µM
- IC50 [23]: 12.1 ± 0.1 µM
- IC50 [24]: 20.5 ± 1.3 µM
- IC50 [25]: 19.1 ± 0.4 µM
- IC50 [26]: 31.9 ± 0.7 µM
- IC50 [27]: 9.3 ± 1.7 µM
